These results are taken from publication PMC11189555, “Aryl amino acetamides prevent Plasmodium falciparum ring development via targeting the lipid-transfer protein PfSTART1” (Nature Communications, 2024).

Test [1] deals with PfSTART1. Description: PfSTART1 knock-down by glucosamine (glmS riboswitch), Western blot densitometry. The format is cell-based, Plasmodium falciparum. The settings on record: 2.5 mM GlcN; for START densitometry, Norm 0 mM [EXP2]: one value per biological replicate; for START densitometry, norm 0/EXP2: START band normalised to EXP2, then to 0 mM GlcN of the same line; for START densitometry, norm 0/EXP2 / START densitometry, norm 0/HSP / START densitometry, norm 3D7, EXP2 / START densitometry, norm 3D7, HSP70: 3 biological replicates; for START densitometry, norm 0/HSP: START band normalised to HSP70, then to 0 mM GlcN of the same line; for START densitometry, norm 3D7, EXP2: START/EXP2 relative to 3D7 at 0 mM GlcN (=1.00E+02); for START densitometry, norm 3D7, HSP70: START/HSP70 relative to 3D7 at 0 mM GlcN (=1.00E+02); for PfSTART1 knockdown: 48 h. The procedure: Parasites were prepared for the stage of interest and proteins were extracted using a saponin-lysis (unless indicated otherwise). For knock-down assays, parasites were exposed to 0 or 2.5 mM GlcN for 48 h (starting from late schizont/early rings): the day before harvesting schizonts, 30 nM ML10 (LifeArc) was also added to the cultures to block egress. Infected red blood cells were lysed 10 min on ice with 0.1% saponin in PBS complemented with 1x Protease Inhibitors Cocktail (Roche; PBS + PI). Parasites were pelleted and washed with PBS + PI to remove haemoglobin. […] Protein samples were centrifuged at 15,000 g, then run on a pre-cast 4-12% NuPAGE Bis-Tris gel (Invitrogen) and proteins were transferred onto a nitrocellulose membrane using iBlot (Invitrogen). Membranes were exposed to the primary antibody overnight at 4 °C, to the secondary antibody 1 h at room temperature, and fluorescence was measured using an Odyssey imaging system, which was also used to measure densitometry. The list of antibodies used, their dilution, and origins are described in Table S3.

Test [2] concerns P. falciparum oocysts in mosquito midguts. Description: Standard membrane feeding assay: oocysts in mosquito midguts (Walter and Eliza Hall Institute). It is filed as in vivo, Plasmodium falciparum. The following applies: for Oocyst counts from individual mosquitoes: 30 mosquitoes dissected. As to the method:
These assays were performed at the Walter and Eliza Hall Institute and at the London School of Hygiene and Tropical Medicine using slightly different approaches which are described in the Supplementary Information. […]
were aspirated into a cup and anesthetized by cooling to 4 °C until immobilized and kept on ice for the dissection. The mosquitoes were then dissected as previously described 12 and collected midguts were maintained in 1X PBS (Gibco) until they were stained with mercurochrome for 20 mins. […]

Test [3] relates to P. berghei sporozoites invading HC-04 human liver cells. Put plainly: In vitro liver invasion assay. The format is cell-based, Plasmodium berghei. The procedure: P. berghei ANKA constitutively expressing mCherry[82] was used for the in vitro liver stage invasion assay. Animals used for the generation of the sporozoites were 4- to 5-week-old male Swiss Webster mice and were purchased from the Monash Animal Services (Melbourne, Victoria, Australia) and housed at 22 to 25 °C on a 12 h light/dark cycle with 40-70% humidity at the School of Biosciences, The University of Melbourne, Australia. All animal experiments were in accordance with the Prevention of Cruelty to Animals Act 1986, the Prevention of Cruelty to Animals Regulations 2008, and National Health and Medical Research Council (2013) Australian code for the care and use of animals for scientific purposes. These experiments were reviewed and permitted by the Melbourne University Animal Ethics Committee (2015123).
Infections of naïve Swiss mice were carried out by intraperitoneal (IP) inoculation obtained from a donor mouse between the first and fourth passages from cryopreserved stock. Parasitemia was monitored by Giemsa smear and exflagellation quantified 3 days post-infection. A. stephensi mosquitoes were allowed to feed on anaesthetised mice once the exflagellation rate was assessed between about 12 to 15 exflagellation events per 1 × 10^4 RBCs. Salivary glands of infected mosquitoes (days 17 to 24 post-infection) were isolated by dissection and parasites placed into RPMI-1640 media.
This was performed essentially as described[83] with the minor variations outlined in the Supplementary Information. […]
In vitro liver invasion assays. This was performed essentially as described16 with the following variations. In vitro human liver HCO4 cells (ATCC) were seeded at 1 × 10^5 cells/mL, grown for 24 h and then infected for 2 h with 30,000 Pb ANKA mCherry […]
expressing sporozoites. Following fixation, an IFA with anti -CSP antibody (1:500) followed by anti-mouse Alexafluor 488 (1:1 ,000; Invitrogen, Carlsbad, CA, USA) labels uninvaded parasites. Fluorescence signal was assessed using an Olympus CKX41 epifluorescence microscope. […]
Gametogenesis was then triggered by the addition of 10 μL ookinete medium (gametocyte culture medium supplemented with 100 μM xanthurenic acid and 0.27 µg/mL Cy3-labelled anti-Pfs25 antibody) to each well at room temperature. Plates were then cooled on a metal block at 4°C for four min to ensure even cooling and then stabilised for a further 4 min at 28°C. At 20 min post-induction, male gametogenesis was recorded in each well by automated brightfield microscopy using a x4 objective lens and 1.5x magnifier (x6 effective magnification). Afterward, plates were incubated in the dark at room temperature for 24 h and then female gametogenesis recorded in each well by automated fluorescence microscopy (anti-Pfs25-positive cells). All experiments were performed in quadruplicate with DMSO and cabamiquine (DDD107498)17 as negative and positive controls respectively. All data was evaluated in comparison to the positive and negative controls to calculate percentage inhibition of male and female gametocytes, and dose response analysis and IC50 calculation performed using GraphPad Prism. […]
The pellet was subjected to five

Values joined by “and” are separate entries in the source; they are usually repeats but may differ in a detail not shown here. Identical values can stand only once. “Also recorded” adds a separate entry of the source.

Regarding `N[C@H]1C(O)O[C@H](CO)[C@@H](O)[C@@H]1O` (some centres unmarked) [GlcN, glucosamine], the “START densitometry, Norm 0 mM [EXP2]” value is 1.02E+02 and 1.14E+02 and 9.72E+01 in test [1] (3D7); 5.39E+01 and 7.05E+01 and 4.74E+01 in test [1] (SLI-N309K); 2.99E+01 and 2.84E+01 and 3.23E+01 in test [1] (SLI-N330K); 5.15E+01 and 2.89E+01 and 3.95E+01 in test [1] (SLI-WT). For the same compound, the “START densitometry, norm 0/EXP2” value in test [1] (3D7 parasites) is 1.29E+02 and 9.38E+01 and 8.16E+01; in test [1] (CR-N309K parasites) it was 1.17E+01 and 2.98E+01 and 1.90E+01; in test [1] (CR-N330K parasites), 1.02E+01 and 3.10E+01 and 7.15E+00; in test [1] (CR-WT parasites), 2.42E+01 and 2.14E+01 and 2.95E+01. In addition, the “START densitometry, norm 0/HSP” value is 1.32E+02 and 1.01E+02 and 9.77E+01 in test [1] (3D7 parasites); 2.14E+01 and 2.66E+01 and 2.27E+01 in test [1] (CR-N309K parasites); 2.77E+01 and 2.71E+01 and 1.13E+01 in test [1] (CR-N330K parasites); 2.70E+01 and 2.58E+01 and 2.79E+01 in test [1] (CR-WT parasites). In addition, the “START densitometry, norm 3D7, EXP2” value in test [1] (3D7 parasites) was 1.29E+02 and 9.38E+01 and 8.16E+01; in test [1] (CR-N309K parasites), 1.40E+01 and 3.50E+01 and 1.71E+01; in test [1] (CR-N330K parasites), 1.13E+01 and 3.35E+01 and 1.19E+01; in test [1] (CR-WT parasites), 3.52E+01 and 2.52E+01 and 2.73E+01. Moreover, the “START densitometry, norm 3D7, HSP70” value in test [1] (3D7 parasites) is 1.32E+02 and 1.01E+02 and 9.77E+01; in test [1] (CR-N309K parasites), 1.73E+01 and 1.93E+01 and 2.63E+01; in test [1] (CR-N330K parasites), 2.31E+01 and 2.22E+01 and 2.51E+01; in test [1] (CR-WT parasites) it was 2.33E+01 and 2.02E+01 and 4.40E+01. The PfSTART1 knockdown in test [1] (CR-N309K schizonts) was 81%; in test [1] (CR-N330K schizonts), 84%; in test [1] (CR-WT schizonts) it was 75%; in test [1] (SLI-N309K schizonts), 43%; in test [1] (SLI-N330K schizonts), 70%; in test [1] (SLI-WT schizonts), 60%.
For the compound `CC(C)(Nc1ccc(Cl)c(S(=O)(=O)N2CCOCC2)c1)C(=O)Nc1ccc(F)c(Cl)c1` [W-991], in test [2] (100 nM W-991, oocysts counted 7 days after feeding), the “reduction of the number of oocysts compared to untreated control” value was above 20 fold. Moreover, the “Oocyst counts from individual mosquitoes” value in test [2] (W-991 1 nM) was 38 and 56 and 49 and 30 and 0 and 4 and 7 and 9 and 6 and 8 and 12 and 35 and 22 and 20 and 13 and 50 and 15 and 10 and 31 and 18 and 11 and 24 and 1; in test [2] (W-991 50 nM), 9 and 3 and 23 and 27 and 20 and 4 and 12 and 0 and 7 and 10 and 2 and 31 and 22 and 1 and 17; in test [2] (W-991 100 nM), 6 and 0 and 2 and 16 and 24 and 8 and 11 and 5 and 1 and 7 and 12. In test [2] (W-991 1, 50, 100 nM, day 7 after feeding), the “oocysts per mosquito” value is on record as “dose-dependent decrease in oocysts per mosquito”. In addition, the “P. berghei sporozoite invasion” value in test [3] (2 h incubation with HC-04 cells, p > 0.05) is reported as “showed no defect in invasion; also recorded: had no impact”. Moreover, in test [3] (count of sporozoites inside cells, Replicate 1 and 2), the “Liver stage invasion assay: in” value was 58 and 121. Also, the “Liver stage invasion assay: out” value in test [3] (count of sporozoites outside cells, Replicate 1 and 2) was 92 and 153. Further, in test [3] (in relative to in + out, Replicate 1 and 2), the “Liver stage invasion assay: ratio” value is 38.6667 and 44.1606.
